Paper PMC5050210, “BdorOBP83a-2 Mediates Responses of the Oriental Fruit Fly to Semiochemicals” (Frontiers in Physiology, 2016)

Tests used:
BdorOBP56h [1] = molecular target: T1, BdorOBP56h (Bactrocera dorsalis, UniProt A0A0G2UMU0); experiment: direct fluorescence titration; assay type: binding; conditions: 50 mM Tris-HCl pH 7.4, 25°C; 2 μM protein, 1-16 μM 1-NPN; fluorescent probe
T1 construct: gene OBP56h; mature protein without signal peptide
T1 sequence (A0A0G2UMU0 20-136): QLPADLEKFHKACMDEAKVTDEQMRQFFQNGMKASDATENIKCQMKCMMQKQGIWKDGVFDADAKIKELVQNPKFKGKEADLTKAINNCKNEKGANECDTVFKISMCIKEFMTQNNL

BdorOBP83a-1 [2] = molecular target: T2, BdorOBP83a-1 (Bactrocera dorsalis, UniProt A0A0G2UGI4); experiment: direct fluorescence titration; assay type: binding; conditions: 50 mM Tris-HCl pH 7.4, 25°C; 2 μM protein, 1-16 μM 1-NPN; fluorescent probe
T2 construct: gene OBP83a-1; mature protein without signal peptide
T2 sequence (A0A0G2UGI4 32-155): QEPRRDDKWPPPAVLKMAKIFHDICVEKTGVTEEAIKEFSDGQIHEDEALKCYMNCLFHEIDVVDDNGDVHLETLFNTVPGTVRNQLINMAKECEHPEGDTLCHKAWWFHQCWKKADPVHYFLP

BdorOBP84a-2 = molecular target: T3, BdorOBP84a-2 (Bactrocera dorsalis, UniProt A0A0G2UEQ7); experiment: direct fluorescence titration; assay type: binding; conditions: 50 mM Tris-HCl pH 7.4, 25°C; 2 μM protein, 1-16 μM 1-NPN; fluorescent probe
T3 construct: gene OBP84a-2; mature protein without signal peptide
T3 sequence (A0A0G2UEQ7 26-170): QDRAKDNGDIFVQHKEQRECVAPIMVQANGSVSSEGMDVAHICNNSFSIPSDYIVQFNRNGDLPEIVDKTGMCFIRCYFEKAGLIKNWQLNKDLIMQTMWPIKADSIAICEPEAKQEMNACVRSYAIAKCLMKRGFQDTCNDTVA

BdorCSP3 = molecular target: T4, BdorCSP3 (Bactrocera dorsalis, UniProt A0A0G2UMR0); experiment: direct fluorescence titration; assay type: binding; conditions: 50 mM Tris-HCl pH 7.4, 25°C; 2 μM protein, 1-16 μM 1-NPN; fluorescent probe
T4 construct: gene CSP3; mature protein without signal peptide
T4 sequence (A0A0G2UMR0 23-156): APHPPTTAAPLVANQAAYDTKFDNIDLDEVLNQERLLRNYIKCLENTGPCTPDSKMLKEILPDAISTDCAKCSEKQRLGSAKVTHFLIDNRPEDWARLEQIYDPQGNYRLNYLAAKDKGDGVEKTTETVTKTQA

BdorOBP84a-1 [3] = molecular target: T5, BdorOBP84a-1 (Bactrocera dorsalis, UniProt A0A0G2UGI7); experiment: direct fluorescence titration; assay type: binding; conditions: 50 mM Tris-HCl pH 7.4, 25°C; 2 μM protein, 1-16 μM 1-NPN; fluorescent probe
T5 construct: gene OBP84a-1; mature protein without signal peptide
T5 sequence (A0A0G2UGI7 25-167): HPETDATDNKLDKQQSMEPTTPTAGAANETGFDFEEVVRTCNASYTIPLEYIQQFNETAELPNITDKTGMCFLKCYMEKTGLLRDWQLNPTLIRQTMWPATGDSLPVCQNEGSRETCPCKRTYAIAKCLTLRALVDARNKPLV

BdorOBP83a-2 [4] = molecular target: T6, BdorOBP83a-2 (Bactrocera dorsalis, UniProt A0A0G2UEQ3); experiment: direct fluorescence titration; assay type: binding; conditions: 50 mM Tris-HCl pH 7.4, 25°C; 2 μM protein, 1-16 μM 1-NPN; fluorescent probe
T6 construct: gene OBP83a-2; mature protein without signal peptide
T6 sequence (A0A0G2UEQ3 24-148): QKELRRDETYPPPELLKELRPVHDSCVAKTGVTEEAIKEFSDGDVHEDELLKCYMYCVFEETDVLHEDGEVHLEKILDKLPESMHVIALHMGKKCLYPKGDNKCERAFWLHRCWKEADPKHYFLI

BdorOBP83a-1 [5] = molecular target: T2, BdorOBP83a-1; experiment: biochemical; design: Fluorescence competitive displacement of 1-NPN from recombinant OBP, 25 °C, pH 7.4; competitor 5-50 uM; conditions: 1-NPN displacement, Kd from IC50, extrapolated
Description: (§1) Fluorescence spectra were measured on an F-7000 FL Fluorescence Spectrophotometer (Hitachi) in a 10 mm light path quartz cuvette at 25°C. All were excited at 337 nm with emission and excitation slit of both 10 nm. The emission spectra were recorded between 350 and 500 nm. […] All measurements were performed in triplicates and mean values and standard errors are calculated. […] To determine the roles of specific OBPs in recognition of attractants in B. dorsalis, recombinant proteins of selected antenna-abundant OBPs and CSPs were obtained using a prokaryotic expression system (Figure 5). Purified OBPs and CSPs were used to determine binding affinity of each protein via fluorescence competitive binding assays. Thirteen pure attractant compounds were tested against each recombinant protein. […] Except for BdorCSP3 and BdorOBP84a-2, all remaining OBPs could bind to the tested compounds (Figure 6; Table S8). […] Alternatively they might be involved in functions other than odor detection. […] Overall, we observed lower binding affinity with our recombinant proteins and tested attractants. […] In other studies, much higher affinity has been reported. For example, competitive binding assays with a lepidopteran pheromone-binding protein can reach nearly 100% displacement (Hooper et al., [2009]; Gu et al., [2013]), and competitive binding assays with an aphid OBP (OBP7) can reach about 80% displacement with the alarm pheromone (E)-ss-farnesene (Sun et al., [2012]). The biological significance of the observed lower affinity with B. doralis OBPs here remains to be determined. It could be due to diverse binding mechanisms between different functional OBPs and the corresponding compounds. Alternatively, BdorOBP83a-2 may […] The sequences of BdorOBPs and BdorCSPs encoding mature proteins (without signal peptide) were amplified by PCR using specific primers carrying a restriction site EcoRI or XhoI (Table S2). PCR fragments were digested with both EcoRI and XhoI enzymes and the released DNA fragments were cloned into a PET-32a vector (Invitrogen), which were used to transform BL21 (DE3) E. coli competent cells (Invitrogen). A selected positive clone was grown overnight in 5 mL [compound left out] LB/ampicillin medium overnight at 37°C. Protein expression was induced with 1 mM IPTG for 3 h when the culture had reached an OD600-value of 0.7–0.9. Cells were then harvested by centrifugation and lysed by sonication. After sonication and centrifugation, most recombinant proteins were present in inclusion bodies. […] Renaturation of purified proteins were accomplished by gradient dilution at 4°C. His-tag was removed by digestion with recombinant enterokinase (Novagen) and the digested mixtures were passed through a HisTrap affinity column to remove any undigested protein. At each step during protein preparation and purification, protein extracts, and purified proteins were examined on 15% SDS-PAGE.

BdorOBP84a-1 [6] = molecular target: T5, BdorOBP84a-1; experiment: biochemical; design: Fluorescence competitive displacement of 1-NPN from recombinant OBP, 25 °C, pH 7.4; competitor 5-50 uM; conditions: 1-NPN displacement; for IC50: 2 uM protein, 2 uM 1-NPN, extrapolated; for Kd: Kd from IC50, extrapolated
Description: as §1

BdorOBP56h [7] = molecular target: T1, BdorOBP56h; experiment: biochemical; design: Fluorescence competitive displacement of 1-NPN from recombinant OBP, 25 °C, pH 7.4; competitor 5-50 uM; conditions: 1-NPN displacement; for IC50: 2 uM protein, 2 uM 1-NPN, extrapolated, read-out: BdorOBP56 / IC50; for Kd: Kd from IC50, extrapolated, read-out: BdorOBP56 / Kd
Description: as §1

BdorOBP83a-2 [8] = molecular target: T6, BdorOBP83a-2; experiment: biochemical; design: Fluorescence competitive displacement of 1-NPN from recombinant OBP, 25 °C, pH 7.4; competitor 5-50 uM; conditions: 1-NPN displacement, Kd from IC50
Description: as §1

BdorOBP83a-1 [9] = molecular target: T2, BdorOBP83a-1; experiment: biochemical; design: Fluorescence competitive displacement of 1-NPN from recombinant OBP, 25 °C, pH 7.4; competitor 5-50 uM; conditions: 1-NPN displacement, 2 uM protein, 2 uM 1-NPN, extrapolated
Description: (§2) Fluorescence spectra were measured on an F-7000 FL Fluorescence Spectrophotometer (Hitachi) in a 10 mm light path quartz cuvette at 25°C. […] The emission spectra were recorded between 350 and 500 nm. […] All measurements were performed in triplicates and mean values and standard errors are calculated. […] To determine the roles of specific OBPs in recognition of attractants in B. dorsalis, recombinant proteins of selected antenna-abundant OBPs and CSPs were obtained using a prokaryotic expression system (Figure 5). Purified OBPs and CSPs were used to determine binding affinity of each protein via fluorescence competitive binding assays. Thirteen pure attractant compounds were tested against each recombinant protein. […] PCR fragments were digested with both EcoRI and XhoI enzymes and the released DNA fragments were cloned into a PET-32a vector (Invitrogen), which were used to transform BL21 (DE3) E. coli competent cells (Invitrogen). […] LB/ampicillin medium overnight at 37°C. Protein expression was induced with 1 mM IPTG for 3 h when the culture had reached an OD600-value of 0.7–0.9. Cells were then harvested by centrifugation and lysed by sonication. […] Renaturation of purified proteins were accomplished by gradient dilution at 4°C. His-tag was removed by digestion with recombinant enterokinase (Novagen) and the digested mixtures were passed through a HisTrap affinity column to remove any undigested protein. At each step during protein preparation and purification, protein extracts, and purified proteins were examined on 15% SDS-PAGE.

BdorOBP83a-2 [10] = molecular target: T6, BdorOBP83a-2; experiment: biochemical; design: Fluorescence competitive displacement of 1-NPN from recombinant OBP, 25 °C, pH 7.4; competitor 5-50 uM; conditions: 1-NPN displacement, 2 uM protein, 2 uM 1-NPN
Description: as §2

For c1ccc(Nc2cccc3ccccc23)cc1 [1-NPN], the K1-NPN (BdorOBP56h [1]) was “exhibited high affinity to the fluorescent probe 1-NPN”, the K1-NPN (BdorOBP83a-1 [2]) was “exhibited high affinity to the fluorescent probe 1-NPN” and the K1-NPN (BdorOBP84a-2) was “exhibited high affinity to the fluorescent probe 1-NPN”. For the same molecule, the K1-NPN (BdorCSP3) was “exhibited high affinity to the fluorescent probe 1-NPN”, the K1-NPN (BdorOBP84a-1 [3]) was “exhibited high affinity to the fluorescent probe 1-NPN” and the K1-NPN (BdorOBP83a-2 [4]) was “exhibited high affinity to the fluorescent probe 1-NPN”.
Molecule C=CC(O)CCCCC (stereo not shown) [1-octen-3-ol] has a Kd (BdorOBP83a-1 [5]) of over 50 µM, an IC50 (BdorOBP84a-1 [6]) of over 50 µM and a Kd (BdorOBP84a-1 [6]) of over 50 µM. It also gave an IC50 (BdorOBP56h [7]) of over 50 µM, a Kd (BdorOBP56h [7]) of over 50 µM and a Kd (BdorOBP83a-2 [8]) of over 50 µM. The IC50 (BdorOBP83a-1 [9]) was over 50 µM and the IC50 (BdorOBP83a-2 [10]) was over 50 µM.
c1ccc2scnc2c1 [Benzothiazole] was tested, and the Kd (BdorOBP83a-1 [5]) was over 50 µM, the IC50 (BdorOBP84a-1 [6]) was over 50 µM and the Kd (BdorOBP84a-1 [6]) was over 50 µM. For the same molecule, the IC50 (BdorOBP56h [7]) was over 50 µM, the Kd (BdorOBP56h [7]) was over 50 µM and the Kd (BdorOBP83a-2 [8]) was over 50 µM. It also gave an IC50 (BdorOBP83a-1 [9]) of over 50 µM and an IC50 (BdorOBP83a-2 [10]) of over 50 µM.
For COc1cc(/C=C/CO)ccc1O [E-coniferyl alcohol], the Kd (BdorOBP83a-1 [5]) was over 50 µM, the IC50 (BdorOBP84a-1 [6]) was over 50 µM and the Kd (BdorOBP84a-1 [6]) was over 50 µM. For the same molecule, the Kd (BdorOBP83a-2 [8]) was over 50 µM, the IC50 (BdorOBP83a-1 [9]) was over 50 µM and the IC50 (BdorOBP83a-2 [10]) was over 50 µM.
CCOC(C)=O [Ethyl acetate] showed a Kd (BdorOBP83a-1 [5]) of over 50 µM, an IC50 (BdorOBP56h [7]) of over 50 µM and a Kd (BdorOBP56h [7]) of over 50 µM. The Kd (BdorOBP83a-2 [8]) was over 50 µM, the IC50 (BdorOBP83a-1 [9]) was over 50 µM and the IC50 (BdorOBP83a-2 [10]) was over 50 µM.
CCOC(=O)c1ccccc1 [Ethyl benzoate] gave an IC50 (BdorOBP84a-1 [6]) of over 50 µM, a Kd (BdorOBP84a-1 [6]) of over 50 µM and an IC50 (BdorOBP56h [7]) of over 50 µM. For the same molecule, the Kd (BdorOBP56h [7]) was over 50 µM, the Kd (BdorOBP83a-2 [8]) was over 50 µM and the IC50 (BdorOBP83a-2 [10]) was over 50 µM.
